In this assay the target is T1, HMG-CoA reductase (microsomes of rat liver) (Rattus norvegicus, UniProt P51639).
T1 construct: from tissue; host or cells: rat liver microsomes
T1 sequence (P51639 1-887): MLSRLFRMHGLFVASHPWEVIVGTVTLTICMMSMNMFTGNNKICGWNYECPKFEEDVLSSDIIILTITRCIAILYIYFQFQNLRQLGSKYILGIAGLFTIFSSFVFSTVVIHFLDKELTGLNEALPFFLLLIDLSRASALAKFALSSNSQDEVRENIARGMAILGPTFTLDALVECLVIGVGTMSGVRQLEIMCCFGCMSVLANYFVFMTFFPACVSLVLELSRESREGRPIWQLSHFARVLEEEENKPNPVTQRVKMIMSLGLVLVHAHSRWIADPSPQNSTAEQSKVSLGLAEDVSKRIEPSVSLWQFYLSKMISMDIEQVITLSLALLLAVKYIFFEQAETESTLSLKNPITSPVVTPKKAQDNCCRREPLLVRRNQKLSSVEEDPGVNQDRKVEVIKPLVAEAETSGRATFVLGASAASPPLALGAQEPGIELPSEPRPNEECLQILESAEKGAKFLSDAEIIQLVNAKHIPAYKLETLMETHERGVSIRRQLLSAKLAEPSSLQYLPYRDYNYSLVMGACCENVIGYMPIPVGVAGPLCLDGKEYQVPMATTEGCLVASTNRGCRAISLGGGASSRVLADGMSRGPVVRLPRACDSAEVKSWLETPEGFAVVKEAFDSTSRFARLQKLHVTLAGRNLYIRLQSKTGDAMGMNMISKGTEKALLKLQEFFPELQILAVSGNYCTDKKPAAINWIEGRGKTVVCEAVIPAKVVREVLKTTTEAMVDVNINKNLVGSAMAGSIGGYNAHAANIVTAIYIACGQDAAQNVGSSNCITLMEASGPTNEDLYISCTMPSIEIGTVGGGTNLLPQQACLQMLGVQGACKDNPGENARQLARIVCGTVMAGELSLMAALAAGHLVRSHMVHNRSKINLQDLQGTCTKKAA
Briefly: Test of inhibiting activity of HMG-CoA reductase (rate of decline of OD340). The following applies: for Slope (rate of decline of OD340 within 5 min): blank control slope 9.971. It is filed as biochemical. Here is the method: 1. Experimental Materials
The compound of Formula II prepared according to Example 1.
monacolin L (purchased or prepared according to the method of the contents of the present invention)
Standard Sample of Lovastatin (Purchased from Sigma)
Microsomes of rat liver (HMG-CoA reductase) were purchased, or prepared according to the following method: liver of a male rat was taken out, washed with KESD buffering solution, then centrifuged at 1,200 g for 15 min, the supernatant was taken out, and then centrifuged at 105,000 g for 90 min twice, and a centrifugation precipitate was collected. The centrifugation precipitate was added with 8.3% glycerol, heated with 37° C. bath for 1 h. The microsomes of rat liver were purified with saturated ammonium sulfate and the 33-50% purified fraction was collected. The obtained microsomes of rat liver were stored in refrigerator at −80° C.
Potassium chloride, potassium dihydrogen phosphate, ethylene diamine tetraacetic acid, dithiothreitol (all purchased from Beijing Chemical Reagent Co., Ltd.)
[…] (purchased from Merck) 3-hydroxy-3-methylglutaryl coenzyme A (HMG-CoA) and cremophore EL (purchased from Sigma).
The compound as prepared according to Example 1 was dissolved with 50% cremophore EL ethanol solution, and the concentration was 2 mg/mL; the total volume of the system was determined and it was 250 μL, and the concentration of each component was: potassium chloride 200 mM, potassium dihydrogen phosphate 160 mM, ethylene diamine tetraacetic acid 4 mM, dithiothreitol 10 mM, concentrations of two substrates, nicotinamide adenine dinucleotide and 3-hydroxy-3-methylglutaryl coenzyme A, 200 μM and 50 μM separately, pH6.8, addition of enzyme 30 μL, enzyme inhibitor 5 μL, blank control group 5 μL (solvent for dissolving sample). The dynamic change of OD340 was detected with Versamax ELIASA at 37° C. The rate of decline (represented with slope value) of OD340 within 5 min was used to evaluate the activity of HMG-CoA reductase, and then to evaluate the activity of enzyme inhibitor.

What is called inhibition is the percentage by which the read-out fell short of the control. A higher inhibition goes with a strong effect. As to `CC[C@H](C)C(=O)O[C@H]1C[C@@H](C)C=C2C=C[C@H](C)[C@H](CC[C@@H]3C[C@@H](O)CC(=O)O3)[C@H]21` [Lovastatin], where the note is “final concentration 34 μg/mL, 37° C., pH6.8”, the “Slope (rate of decline of OD340 within 5 min)” value (“Slope” for short) was 6.022. At 34 µg/mL the inhibition (pH 6.8, final concentration 34 μg/mL, 37° C., pH6.8) was 39.6%.
In the case of `CC1C=C2C=CC(C)C(CCC3CC(O)CC(=O)O3)C2CC1` (stereo not shown) [monacolin L], under “final concentration 30 μg/mL, 37° C., pH6.8”, the “Slope” value stood at 7.279. Also, where the note is “pH 6.8, final concentration 30 μg/mL, 37° C., pH6.8”, 30 µg/mL produced 27% inhibition.
Consider `CC1C=C2C=CC(C)C(CCC3CC=CC(=O)O3)C2CC1` (stereo not shown) [6-(2-(2,6-dimethyl-1,2,6,7,8,8a-hexahydronaphthalen-1-yl)ethyl)-5,6-dihydropyran-2-one], for which, under “conclusion drawn from Table 2”, the “activity for inhibiting HMG-CoA reductase (in words)” value is reported as “effective activity”. Also, the “Slope” value (final concentration 40 μg/mL, 37° C., pH6.8) is recorded as 7.344. Under “pH 6.8, final concentration 40 μg/mL, 37° C., pH6.8”, this molecule displayed an inhibition at 40 µg/mL of 26.3%.

Values taken from patent publication US9371304B2, “Compound separated from monascus-fermented rice,the preparation method and uses thereof” (Beijing Peking University WBL Biotech Co. Ltd, priority 2011, dated 2016).
